Test results published in publication PMC7672604, “Design, Synthesis, Molecular Docking, Antiapoptotic and Caspase-3 Inhibition of New 1,2,3-Triazole/Bis-2(1H)-Quinolinone Hybrids” (Molecules, 2020).
Several values for one entry are separate records, joined by “and”; a condition that tells them apart may be missing. Equal entries are not always repeated.

System: cytochrome C
Assay: Cytochrome C ELISA in SR human cell line
Type: cell-based
Method: The 1,2,3-triazole/biquinolinone derivative 6c was evaluated for cytochrome C against the SR human cell line and the results are listed in Table 4.
Cells were collected from American Type Culture Collection to be grown in […] containing 10% fetal bovine serum at 37 °C, stimulated with the compounds to be tested for cytochrome C using Cytochrome C Human ELISA Kit (ab119521—Cytochrome C Human ELISA Kit, Vaccera institute, Egypt) (See Supplementary Materials). […]
• Equilibrate all materials and prepared reagents to room temperature prior to use.
• It is recommended to assay all standards, controls and samples in duplicate.
13.1. Prepare all reagents, working standards, and samples as directed in the previous sections.
Determine the number of microplate strips required to test the desired number of samples plus […]
appropriate number of wells needed for running blanks and standards. Predilute samples before […]
starting the test procedure with one-part sample to one-part 1X Assay Buffer.
13.2. Wash the microplate twice with approximately 400 μL 1X Wash Buffer per well with […]
thorough aspiration of microplate contents between washes. Allow the 1X Wash Buffer to remain in […]
Note: The color development on the plate should be monitored and the substrate reaction stopped […]
the stop solution when the highest standard has developed a dark blue color. Alternatively, the color development can be monitored by the ELISA reader at 620 nm. […]
Note: It is important that the Stop Solution is mixed quickly and uniformly throughout the microplate to completely inactivate the enzyme. Results must be read immediately after the Stop Solution is added or within one hour if the microplate strips are stored at 2 - 8°C in the dark.
13.15. Read absorbance of each microplate on a spectrophotometer using 450 nm as the primary wavelength (optionally 620 nm as the reference wavelength; 610 nm to 650 nm is acceptable).
Blank the plate reader according to the manufacturer's instructions by using the blank wells.
Determine the absorbance of both the samples and the standards. […]

CC(=O)N[C@@H](CS)C(=O)O [NAC, N-acetylcysteine, reference compound]
Cyt C Conc: 0.24 ± 0.019 ng/mL | Cyt C Fold Change (down-expression relative to control): 4.13 fold

COc1ccc2[nH]c(=O)cc(-n3cc(COc4cc(=O)[nH]c5ccccc45)nn3)c2c1 [6c, 6-Methoxy-4-(4-(((2-oxo-1,2-dihydroquinolin-4-yl)oxy)methyl)-1H-1,2,3-triazol-1-yl)-quinolin-2(1H)-one]
Cyt C Conc: 0.28 ng/mL and 0.28 ± 0.011 ng/mL
